Source: ChEMBL document CHEMBL1122929, “6,7-Dihydro-5-[[(cis-2-hydroxy-trans-3-phenoxycyclopentyl)amino] methyl]-2-methylbenzo[b]thiophen-4(5H)-one: a novel alpha 1-adrenergic receptor antagonist and renal vasodilator” (J Med Chem, 1985)
Activity calls are given as the source filed them. No cut-off for these calls is given here.

Assays:
Canis familiaris [1] = assay: Renal blood flow was determined at cumulative dose of 1 mg/kg in anesthetized dogs by intravenous administration after SCH 23390 pretreatment; format: functional, Canis lupus familiaris, Kidney
Canis familiaris [2] = assay: Mean arterial blood pressure was determined at cumulative dose of 1 mg/kg in anesthetized dogs by intravenous administration after sulpiride pretreatment; format: functional, Canis lupus familiaris
Canis familiaris [3] = assay: Renal blood flow was determined at cumulative dose of 0.3 mg/kg in anesthetized dogs by intravenous administration after sulpiride pretreatment; format: functional, Canis lupus familiaris, Kidney
Canis familiaris [4] = assay: Mean arterial blood pressure was determined at cumulative dose of 0.3 mg/kg in anesthetized dogs by intravenous administration after sulpiride pretreatment; format: functional, Canis lupus familiaris
Canis familiaris [5] = assay: Renal blood flow was determined at cumulative dose of 0.01 mg/kg in anesthetized dogs by intravenous administration after SCH 23390 pretreatment; format: functional, Canis lupus familiaris, Kidney
Canis familiaris [6] = assay: Mean arterial blood pressure was determined at cumulative dose of 0.01 mg/kg in anesthetized dogs by intravenous administration after sulpiride pretreatment; format: functional, Canis lupus familiaris
Canis familiaris [7] = species: Canis familiaris; assay: Dose required to reduce blood pressure by 15% (ED15) was calculated.; format: functional; conditions: Canis lupus familiaris
Canis familiaris [8] = assay: Renal blood flow was determined at cumulative dose of 1 mg/kg in anesthetized dogs by intravenous administration after sulpiride pretreatment; format: functional, Canis lupus familiaris, Kidney
Canis familiaris [9] = assay: Renal blood flow was determined at cumulative dose of 0.1 mg/kg in anesthetized dogs by intravenous administration after sulpiride pretreatment; format: functional, Canis lupus familiaris, Kidney
[10] = target: T1, Adrenergic receptor alpha-2 (Rattus norvegicus, UniProt P22086+P19328+P22909); assay: Ability to inhibit 50% specific binding of [3H]-p-amino clonidine radioligand to alpha-2 adrenergic receptor in rat cerebrocortex; format: tissue-based, Cortex
T1 sequence (P22086 whole entry): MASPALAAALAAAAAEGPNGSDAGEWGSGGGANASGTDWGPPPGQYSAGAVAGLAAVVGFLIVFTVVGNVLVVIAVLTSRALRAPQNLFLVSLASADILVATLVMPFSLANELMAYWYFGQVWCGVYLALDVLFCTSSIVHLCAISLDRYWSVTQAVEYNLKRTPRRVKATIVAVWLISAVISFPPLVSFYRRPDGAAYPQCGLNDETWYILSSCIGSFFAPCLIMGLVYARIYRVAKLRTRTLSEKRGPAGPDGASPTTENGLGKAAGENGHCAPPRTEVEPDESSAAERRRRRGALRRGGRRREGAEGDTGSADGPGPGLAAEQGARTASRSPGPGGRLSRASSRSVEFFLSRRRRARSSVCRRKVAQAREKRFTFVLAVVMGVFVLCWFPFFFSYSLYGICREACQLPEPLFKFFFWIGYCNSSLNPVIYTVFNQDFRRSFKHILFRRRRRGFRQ
T1 sequence (P19328 whole entry): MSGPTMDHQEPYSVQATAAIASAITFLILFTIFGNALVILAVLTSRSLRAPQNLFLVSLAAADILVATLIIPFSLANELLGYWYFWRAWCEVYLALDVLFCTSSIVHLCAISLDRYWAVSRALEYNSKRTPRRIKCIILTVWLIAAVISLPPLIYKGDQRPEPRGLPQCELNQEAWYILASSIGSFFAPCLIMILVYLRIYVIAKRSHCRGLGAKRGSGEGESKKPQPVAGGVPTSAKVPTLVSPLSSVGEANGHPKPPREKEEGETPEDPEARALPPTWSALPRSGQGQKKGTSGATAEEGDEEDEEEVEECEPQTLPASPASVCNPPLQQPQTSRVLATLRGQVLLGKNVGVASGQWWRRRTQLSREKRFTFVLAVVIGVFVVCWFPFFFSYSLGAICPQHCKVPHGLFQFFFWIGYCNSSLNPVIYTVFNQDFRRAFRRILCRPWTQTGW
T1 sequence (P22909 whole entry): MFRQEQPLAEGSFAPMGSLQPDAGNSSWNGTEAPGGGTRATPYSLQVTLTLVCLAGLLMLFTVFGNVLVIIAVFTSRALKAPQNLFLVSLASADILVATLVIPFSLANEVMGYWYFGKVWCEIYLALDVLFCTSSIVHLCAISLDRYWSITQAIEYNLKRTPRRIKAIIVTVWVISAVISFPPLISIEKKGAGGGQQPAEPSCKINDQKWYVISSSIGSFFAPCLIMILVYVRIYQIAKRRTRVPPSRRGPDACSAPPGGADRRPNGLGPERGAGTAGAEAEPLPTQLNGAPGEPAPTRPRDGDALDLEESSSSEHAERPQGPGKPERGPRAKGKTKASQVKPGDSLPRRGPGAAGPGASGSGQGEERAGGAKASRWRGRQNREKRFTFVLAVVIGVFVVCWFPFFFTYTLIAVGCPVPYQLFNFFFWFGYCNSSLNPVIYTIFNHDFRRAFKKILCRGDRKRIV

[11] = target: T2, Adrenergic receptor alpha-1 (Rattus norvegicus, UniProt P15823+P23944+P43140); assay: Ability to inhibit 50% specific binding of [3H]prazosin radioligand to alpha-1 adrenergic receptor in rat cerebrocortex; format: tissue-based, Cortex
T2 sequence (P15823 whole entry): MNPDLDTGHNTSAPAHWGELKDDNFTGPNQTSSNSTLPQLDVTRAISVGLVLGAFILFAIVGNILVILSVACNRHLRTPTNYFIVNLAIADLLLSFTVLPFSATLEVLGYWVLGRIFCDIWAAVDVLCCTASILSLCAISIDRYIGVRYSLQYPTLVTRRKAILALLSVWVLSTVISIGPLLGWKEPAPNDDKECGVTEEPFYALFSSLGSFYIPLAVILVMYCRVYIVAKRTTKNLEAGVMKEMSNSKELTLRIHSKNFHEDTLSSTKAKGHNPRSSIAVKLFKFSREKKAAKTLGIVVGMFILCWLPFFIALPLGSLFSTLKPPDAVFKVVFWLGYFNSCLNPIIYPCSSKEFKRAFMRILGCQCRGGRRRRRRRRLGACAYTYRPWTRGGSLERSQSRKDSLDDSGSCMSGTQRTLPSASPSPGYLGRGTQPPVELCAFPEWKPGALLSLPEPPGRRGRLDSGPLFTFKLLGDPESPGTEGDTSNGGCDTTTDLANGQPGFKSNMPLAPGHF
T2 sequence (P23944 whole entry): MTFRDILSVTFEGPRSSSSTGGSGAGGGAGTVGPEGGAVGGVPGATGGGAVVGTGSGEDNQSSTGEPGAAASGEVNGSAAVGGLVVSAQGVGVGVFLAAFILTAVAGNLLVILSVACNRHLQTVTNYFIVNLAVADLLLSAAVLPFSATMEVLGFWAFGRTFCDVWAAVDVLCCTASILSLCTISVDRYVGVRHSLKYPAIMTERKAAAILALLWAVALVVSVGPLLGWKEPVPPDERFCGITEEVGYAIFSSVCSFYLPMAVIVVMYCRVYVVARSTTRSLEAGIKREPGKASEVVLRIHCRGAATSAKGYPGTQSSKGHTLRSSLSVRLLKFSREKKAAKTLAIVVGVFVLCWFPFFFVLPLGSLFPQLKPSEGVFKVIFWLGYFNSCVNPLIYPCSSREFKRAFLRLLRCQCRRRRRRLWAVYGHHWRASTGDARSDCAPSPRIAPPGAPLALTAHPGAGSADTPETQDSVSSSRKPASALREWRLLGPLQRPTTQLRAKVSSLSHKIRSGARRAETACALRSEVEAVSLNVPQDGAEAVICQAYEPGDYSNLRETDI
T2 sequence (P43140 whole entry): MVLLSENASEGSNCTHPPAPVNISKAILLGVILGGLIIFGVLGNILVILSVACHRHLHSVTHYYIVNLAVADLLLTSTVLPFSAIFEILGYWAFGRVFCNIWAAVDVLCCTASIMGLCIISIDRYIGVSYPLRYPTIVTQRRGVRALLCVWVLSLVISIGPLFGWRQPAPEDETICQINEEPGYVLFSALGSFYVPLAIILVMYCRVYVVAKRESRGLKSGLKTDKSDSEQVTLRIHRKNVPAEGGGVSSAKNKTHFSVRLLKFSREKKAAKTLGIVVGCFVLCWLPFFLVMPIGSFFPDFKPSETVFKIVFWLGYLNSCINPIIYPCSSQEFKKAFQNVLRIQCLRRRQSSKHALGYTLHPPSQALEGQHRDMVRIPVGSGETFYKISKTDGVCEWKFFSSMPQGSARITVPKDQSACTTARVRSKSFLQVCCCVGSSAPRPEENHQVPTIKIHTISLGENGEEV

Canis familiaris [12] = assay: Renal blood flow was determined at cumulative dose of 0.03 mg/kg in anesthetized dogs by intravenous administration after SCH 23390 pretreatment; format: functional, Canis lupus familiaris, Kidney
Canis familiaris [13] = assay: Mean arterial blood pressure was determined at cumulative dose of 0.01 mg/kg in anesthetized dogs by intravenous administration after SCH 23390 pretreatment; format: functional, Canis lupus familiaris
Canis familiaris [14] = assay: Mean arterial blood pressure was determined at cumulative dose of 0.1 mg/kg in anesthetized dogs by intravenous administration after SCH 23390 pretreatment; format: functional, Canis lupus familiaris
Rattus norvegicus [15] = assay: Mean arterial blood pressure (MABP) was evaluated in chronically cannulated spontaneously hypertensive rats (SHR) after peroral administration 30 mg/kg of compound; […]; format: functional
Canis familiaris [16] = assay: Renal blood flow was determined at cumulative dose of 0.01 mg/kg in anesthetized dogs by intravenous administration after sulpiride pretreatment; format: functional, Canis lupus familiaris, Kidney
Canis familiaris [17] = assay: Mean arterial blood pressure (MABP) was evaluated in anesthetized dog after intravenous administration of 1 mg/kg of compound; format: functional, Canis lupus familiaris
[18] = target: Adrenergic receptor alpha-1 (Oryctolagus cuniculus); assay: pA2 value for phenylephrine antagonist towards at alpha-1 adrenergic receptor was determined in rabbit aorta
Canis familiaris [19] = assay: Mean arterial blood pressure was determined at cumulative dose of 0.1 mg/kg in anesthetized dogs by intravenous administration after sulpiride pretreatment; format: functional, Canis lupus familiaris
Canis familiaris [20] = assay: Renal blood flow was determined at cumulative dose of 0.1 mg/kg in anesthetized dogs by intravenous administration after SCH 23390 pretreatment; format: functional, Canis lupus familiaris, Kidney
Canis familiaris [21] = assay: Mean arterial blood pressure was determined at cumulative dose of 0.3 mg/kg in anesthetized dogs by intravenous administration after SCH 23390 pretreatment; format: functional, Canis lupus familiaris
Canis familiaris [22] = assay: Mean arterial blood pressure was determined at cumulative dose of 0.03 mg/kg in anesthetized dogs by intravenous administration after sulpiride pretreatment; format: functional, Canis lupus familiaris
Canis familiaris [23] = assay: Renal blood flow was determined at cumulative dose of 0.03 mg/kg in anesthetized dogs by intravenous administration after sulpiride pretreatment; format: functional, Canis lupus familiaris, Kidney
Canis familiaris [24] = assay: Renal blood flow was determined at cumulative dose of 0.3 mg/kg in anesthetized dogs by intravenous administration after SCH 23390 pretreatment; format: functional, Canis lupus familiaris, Kidney
Canis familiaris [25] = assay: Mean arterial blood pressure was determined at cumulative dose of 0.03 mg/kg in anesthetized dogs by intravenous administration after SCH 23390 pretreatment; format: functional, Canis lupus familiaris
Canis familiaris [26] = assay: Mean arterial blood pressure was determined at cumulative dose of 1 mg/kg in anesthetized dogs by intravenous administration after SCH 23390 pretreatment; format: functional, Canis lupus familiaris
Rattus norvegicus [27] = assay: Mean arterial blood pressure (MABP) was evaluated in conscious hypertensive rats by peroral administration of compound at 30 mg/kg; format: functional; conditions: route oral
Canis familiaris [28] = assay: Mean arterial blood pressure (MABP) was evaluated in anesthetized dog by intravenous administration of compound at 1 mg/kg; format: functional, Canis lupus familiaris
Canis familiaris [29] = species: Canis familiaris; assay: Dose required to reduce blood pressure by 15% (ED15) was calculated; format: functional; conditions: Canis lupus familiaris

Structure (SMILES)	IC50 [10]	IC50 [11]	pA2 [18]	ED15 (Canis familiaris [7])	Max delta MABP (Rattus norvegicus [15]; route oral)	Max delta MABP (Canis familiaris [17])	Max delta MABP (Rattus norvegicus [15])	other results
COc1cc2nc(N3CCN(C(=O)c4ccco4)CC3)nc(N)c2cc1OC [PRAZOSIN]	–	–	–	0.1 mg/kg	–	–	–	Max delta MABP (Rattus norvegicus [27]): -45 mmHg; Max delta MABP (Canis familiaris [28]): -30 mmHg
Cc1cc2c(s1)CCC(CN[C@H]1CC[C@@H](Oc3ccccc3)[C@@H]1O)C2=O (some centres not stated)	> 1000 nM	90 nM	7.04	–	–	-8 mmHg	inactive	ED15 (Canis familiaris [29]): > 10 mg/kg

Further lines, with some results ahead:

IC50 [10]	IC50 [11]	pA2 [18]	Structure (SMILES)	ED15 (Canis familiaris [7])	Max delta MABP (Rattus norvegicus [15]; route oral)	Max delta MABP (Canis familiaris [17])	Max delta MABP (Rattus norvegicus [15])	other results
800 nM	8 nM	8.13	Cc1cc2c(s1)CCC(CN[C@@H]1CC[C@@H](Oc3ccccc3)[C@@H]1O)C2=O.Cl (some centres not stated)	0.08 mg/kg	-70 mmHg	-47 mmHg	–	Delta RBF (Canis familiaris [1]): -6%; Delta MABP (Canis familiaris [2]): -29%; Delta RBF (Canis familiaris [3]): 9%; Delta MABP (Canis familiaris [4]): -21%; Delta RBF (Canis familiaris [5]): -2%; Delta MABP (Canis familiaris [6]): -3%; Delta RBF (Canis familiaris [8]): -1%; Delta RBF (Canis familiaris [9]): 9%; Delta RBF (Canis familiaris [12]): -1%; Delta MABP (Canis familiaris [13]): -3%; Delta MABP (Canis familiaris [14]): -10%; Delta RBF (Canis familiaris [16]): 6%; Delta MABP (Canis familiaris [19]): -14%; Delta RBF (Canis familiaris [20]): -1%; Delta MABP (Canis familiaris [21]): -15%; Delta MABP (Canis familiaris [22]): -10%; Delta RBF (Canis familiaris [23]): 10%; Delta RBF (Canis familiaris [24]): -1%; Delta MABP (Canis familiaris [25]): -6%; Delta MABP (Canis familiaris [26]): -22%
100 nM	45 nM	7.4	Cc1cc2c(s1)CCC(CN[C@@H]1CC[C@@H](Oc3ccccc3)[C@H]1O)C2=O (some centres not stated)	0.61 mg/kg	-34 mmHg	-31 mmHg	–	–
600 nM	55 nM	7.28	Cc1cc2c(s1)CCC(CN[C@H]1CC[C@@H](Oc3ccccc3)[C@H]1O)C2=O (some centres not stated)	3.3 mg/kg	–	-16 mmHg	inactive	–
